# According to patent US8846616B1, “Alpha-melanocyte stimulating hormone as topical anti-inflammatory agent for the treatment of allergic contact dermatitis and eczema” (Florida Agricultural and Mechanical University, priority 2009, dated 2014):
# Columns and labels:
# [1] = test system: DNFB-induced allergic contact dermatitis; assay: Histology (H&E) of ear tissue in the ACD model; assay type: in vivo, mouse; design: key to score of relative inflammation (infiltrate grade): (1+) representing few lymphocytes and eosinophils above baseline levels that are scattered around blood vessels; (2+) representing increased perivascular infiltrate; (3+) representing intense perivascular infiltrate extending slightly into the interstitial collagen between vessels within the papillary dermis; (4+) representing intense diffuse lymphocytic infiltrate throughout the papillary dermis; details: 96 hours after DNFB challenge
# Protocol: (§1) Mice examined in the allergic contact dermatitis model were euthanized 96 hours after challenge with DNFB, and the left and right ears were excised. Ears were fixed in alcoholic formalin and embedded in paraffin. Cross-sections were cut through the center of each ear anterior to posterior. Ears were stained using hematoxylin and eosin (H&E). Additionally, the inflammatory markers CD3 and ICAM-1 were stained using rat anti-mouse primary antibodies (0.2 μg/mL and 1.0 μg/mL, respectively) and detected with a mouse-absorbed goat anti-rat'horseradish peroxidase-conjugated secondary antibody (1.0 μg/mL). Endogenous peroxidase activity was blocked with H2O2 before antibody incubations and DAB exposure, and then the marker-stained slides were counterstained with Mayer's hematoxylin blued with dilute ammonium hydroxide. The sections of each ear were photographed at representative sites using a light microscope (Zeiss Axio Imager; Zeiss, Thornwood, N.Y.) with an attached digital camera (Axiocam MRc, Zeiss, Thornwood, N.Y.) operated by Zeiss AxioVision 4.6.
# Mice used in the allergic contact dermatitis model were euthanized 96 hours after challenge with DNFB (72 hours after initiation of topical treatment), and the left and right ears were excised, fixed with formalin, and embedded in paraffin. Cross-sections of the middle of each ear (same position) were cut at a thickness of 4 μm and stained with hematoxylin and eosin (H&E). […] Microscopic measurements of thickness were made at 5 equidistant points on each of the photographed H&E sections. All values are expressed as mean±SD. All differences were statistically significant as determined by ANOVA for pair-wise comparison (P<0.05).
# Overall, the allergic contact dermatitis hypersensitivity response developed intense perivascular lymphoid infiltrate extending into the papillary dermis with little or no change in the epidermis at 96 hours following challenge. In all samples generally >90% of the inflammatory infiltrate consisted of lymphocytes and <10% consisted of eosinophils. […]
# [2] = test system: DNFB-induced allergic contact dermatitis; assay: Murine allergic contact dermatitis (ACD) model, ear swelling by micrometer; assay type: in vivo, mouse; details: concentration of 0.25% α-MSH versus 0.125% and 0.5%; topical formulations including MF21
# Protocol: Allergic contact dermatitis was induced as previously described (8, 16). Mice were sensitized on day 0 by applying 25 μL of 0.5% DNFB in 4:1 acetone/olive oil on the shaved abdomen. Mice were challenged on day 5 with a single topical application of 15 μL of 0.2% DNFB in 4:1 acetone/olive oil on the right ear in order to induce an ACD response. The left ears were treated with a single topical application of the matched vehicle alone (4:1 acetone/olive oil) to serve as an internal control for the experiments. Beginning on day 6 (24 hours after challenge), the right ears were treated with 15 μL of topically applied α-MSH formulations or 0.5 mM dexamethasone solution and the left ears of the same mice were topically applied with the corresponding matched vehicle. […] Commercial ointment products were topically applied 20 μL per treatment as measured with a syringe and spread evenly with an applicator stick. […] The ACD response was determined by the degree of ear swelling of the hapten-exposed ear (right) compared to that of the matched vehicle-treated contra-lateral ear (left) before DNFB challenge and at 24, 48, 72, and 96 hours after challenge, as measured with a micrometer (7309, Mitutoyo, Tokyo, Japan). Percent change was determined based on 100% thickness 24 hours after challenge. […]
# CD3 = assay: Immunohistochemistry of ear tissue in the ACD model, CD3; assay type: in vivo, mouse; details: ear tissue after three days of treatment, 96 hours after DNFB challenge
# Protocol: as §1
# To assay inflammation, ear tissue of the mice was excised 96 hours after challenge with DNFB, fixed in formalin, and embedded in paraffin. […]
# [3] = In vitro skin permeation, Franz diffusion cells; assay type: in vitro ADME, rat
# Protocol: (§2) In order to determine if the penetration and retention of full-length α-MSH could be augmented in vitro by formulations containing compounds known to improve this process, we conducted in vitro studies with 36 different formulations of α-MSH. The α-MSH powder was weighed directly into a 2 mL graduated glass vial and dissolved in water. Measured volumes of the respective vehicles were dissolved in the solution to achieve the desired percentage (w/v) of α-MSH. Hairless rats were euthanized, skin from the dorsal surface was excised, and the adherent fat and subcutaneous tissue were removed. The skin was mounted on Franz diffusion cells with the stratum corneum facing the donor compartment. The volume of the donor and receptor cells was 2.0 and 5.0 mL, respectively.
# Permeation of α-MSH in these formulations was measured by applying the formulation (200 μL) on the skin surface in the donor compartment, sealed with aluminum foil and Parafilm®. […] After 24 hours, the receptor compartment was sampled, and α-MSH content was analyzed by HPLC.
# (§3) Analysis of α-MSH in permeation and retention studies conducted in vitro with skin from hairless rats was performed using an HPLC system (Waters Corp, Milford, Mass.) operated by Millennium software. […] The α-MSH content in the samples was determined using the UV detector set at 230 nm, and the detection limit was determined to be 0.1 μg/mL. […]
# [4] = In vitro skin retention, Franz diffusion cells; assay type: in vitro ADME, rat; details: after 24 hours
# Protocol: as §2
# For the retention studies, the donor cell was removed, and the excess formulation was removed from the surface of the skin by gently wiping with a cotton swab dipped in 50% ethanol. […] The α-MSH content of each sample was analyzed by HPLC. […]
# as §3
substance,measurement,setting,value
Ac-Ser-Tyr-Ser-Met-Glu-His-Phe-Arg-Trp-Gly-Lys-Pro-Val [α-MSH],score of relative inflammation (infiltrate grade),[1],1+
same,inflammatory (lymphoid) infiltrate in H&E sections,[1]; three days of treatment twice per day,relatively low retention of inflammatory infiltrate
same,ear swelling in H&E sections,"[1]; three days of treatment twice per day, FIG. 4",complete alleviation of swelling down to slightly below baseline thickness
same,"reduction in ear swelling, α-MSH dose response",[2],optimal reduction in ear swelling
same,expression of the CD3 marker antigen in the lymphocytic infiltrate,CD3,greatly reduced
same,permeation through the skin barrier,"[3]; aqueous α-MSH in the absence of TRANSCUTOL and NMP, after 24 hours",did not permeate through the skin barrier at all
same,α-MSH penetrated through 1.0 cm^2 of skin,"[3]; vehicles ethanol, propylene glycol, TRANSCUTOL and LABRASOL (all four), hairless rat skin in vitro",6.5 to 7.0 µg
same,α-MSH retained per gram of skin (epidermis),"[4]; in aqueous TRANSCUTOL, LABRASOL, or propylene glycol",0.4-0.5 mg per gram of skin
same,α-MSH retained per gram of skin (epidermis),[4]; in aqueous ethanol,1.8 mg per gram of skin
